Earlier results in the CATMoS acute toxicity set (Mansouri et al. 2021).
Several values for one entry are separate records, joined by “and”; a condition that tells them apart may be missing. Equal values may be shown once.

Assay: rat acute oral toxicity
Details: in vivo

SMILES | LD50
CC(=O)[C@]1(O)Cc2c(O)c3c(c(O)c2[C@@H](O[C@H]2C[C@H](N)[C@H](O)[C@H](C)O2)C1)C(=O)c1ccccc1C3=O | 5.43 mg/kg
CCC(=O)CC(C)CC (stereo not given) | 3500 mg/kg
CC1=NN(c2ccccc2)C(=O)C1C=O (stereo not given) | 716 mg/kg
CCCCOCC(C)OCC(C)OCC(C)O (stereo not given) | 1840 mg/kg
CCN(CC)CCOC1(c2ccc(Cl)cc2)CCCCC1 | 500 mg/kg
CCCN(CCC)C(=O)SCc1ccccc1 | 1820 mg/kg
CN(C)CCCOC1(Cc2ccccc2)CCCCCC1 | 414 mg/kg
CCCOP(=S)(CCl)Sc1ccc(Cl)cc1 (stereo not given) | 80 mg/kg
Cc1cc(Cl)cc2sc(-c3sc4cc(Cl)cc(C)c4c3OS(=O)(=O)O)c(OS(=O)(=O)O)c12 | 4360 mg/kg
COc1cc2c(cc1OC)C(CCc1ccc(Cl)cc1)N(C)CC2 (stereo not given) | 400 mg/kg
CCCCC(CC)COC(CBr)c1cccc(C2CCCCC2)c1 (stereo not given) | 250 mg/kg
CN(C)P1(=S)OCc2cc([N+](=O)[O-])ccc2O1 (stereo not given) | 125 mg/kg
CCN(CC)C(=O)CSc1ccc(Cl)nn1 | 1550 mg/kg
CCOC(=O)c1nocc1C(=O)c1ccccc1 | 1000 mg/kg
NC(Cl)c1nc(Cl)c(Cl)c(Cl)c1Cl (stereo not given) | 1190 mg/kg
Cc1ncc(CSSCc2cnc(C)c(O)c2CO)c(CO)c1O | 6000 mg/kg
Cc1cc(O)ccc1S(C)(=O)=O | 7000 mg/kg
C=CCn1c(=O)[nH]c(=O)n(CC=C)c1=O | 930 mg/kg
CC(=O)OCC(C)O (stereo not given) | 18000 mg/kg
O=C(O)CCc1nc(-c2ccccc2)c(-c2ccccc2)o1 | 4470 mg/kg
CCSP(=O)(CCl)SCC | 35 mg/kg
CC=Cc1cc(OC)c(OC)cc1OC | 1010 mg/kg
O=c1[nH]ncc2ccccc12 | 370 mg/kg
OC(CCl)COCCCCCOCC(O)CCl (stereo not given) | 2250 mg/kg

SMILES | LD50
CC(C)c1c(C(=O)c2cccnc2)c2ccccc2n1C | 2400 mg/kg
CC1=C(C(=O)OC(C)C)C(c2cccc([N+](=O)[O-])c2)C(C(=O)OC2CN(C(c3ccccc3)c3ccccc3)C2)=C(N)N1 (stereo not given) | 1270 mg/kg
CC(CCO)CCO | 7780 mg/kg
CCOC(=O)Nc1ccc2c(c1)N(C(=O)CN(C)C)c1ccccc1CC2 | 78 mg/kg
Cc1ccc(C(=O)c2ccc(CC(=O)NNCC(=O)N3CCN(C)CC3)n2C)cc1 | 978 mg/kg
COc1nc(C)nc(NC(=O)NS(=O)(=O)c2ccccc2Cl)n1 | 9370 mg/kg
CN(C)C(=O)CCCOC(=O)C(C)(C)Oc1ccc(Cl)cc1 | 2480 mg/kg
Oc1ccc(-c2ccccc2)cc1CN1CCOCC1 | 25 mg/kg
CNC(C)Cc1ccccc1 (racemic) | 29 mg/kg
Cc1ccc(S(=O)(=O)OCCCl)cc1 | 498 mg/kg
CCOP(=S)(OCC)Oc1cc(C)n(C)c(=O)c1 | 5.97 mg/kg
CCN(CC)C(C)CN1c2ccccc2Sc2ccccc21 (stereo not given) | 1700 mg/kg
C=C1C(=CC=C2CCCC3(C)C2CCC3C(C)CCCC(O)(C(F)(F)F)C(F)(F)F)CC(O)CC1O (stereo not given) | 0.0417 mg/kg
CN(CO)C(=S)S | 590 mg/kg
COc1ccc(N)cc1N | 460 mg/kg
CN(CC(=O)N1CCOCC1)Cc1c(Cl)cccc1NC(=O)c1ccccc1 | 4200 mg/kg
CN=C(O)Oc1cccc2c1OC(C)C2 (stereo not given) | 43 mg/kg
NCCCCC(CN)CCCN (stereo not given) | 760 mg/kg
CCOC(=O)C(C)(CC)Oc1ccc(Cc2ccc(Cl)cc2)cc1 (stereo not given) | 9000 mg/kg
CCOP(=O)(NC(C)=O)SC (stereo not given) | 500 mg/kg
O=C1OC(c2ccc(O)cc2)(c2ccc(O)cc2)c2c(I)c(I)c(I)c(I)c21 | 2800 mg/kg
Cc1cc(Cl)ccc1N | 1060 mg/kg
CNC(=O)Oc1cc(C)c(S(C)=O)c(C)c1 (stereo not given) | 42 mg/kg
CN1C(=O)CN=C(c2ccccc2F)c2c1ccc(NC(=O)N1CCOCC1)c2Cl | 1250 mg/kg

SMILES | LD50
C[n+]1ccccc1 | 285 mg/kg
CC1CN1P(=O)(N1CC1C)N1CC1C (stereo not given) | 136 mg/kg
COP(=S)(NC(C)C)Oc1ccc(C)cc1[N+](=O)[O-] (stereo not given) | 309 mg/kg
COc1ccccc1OC1CCN(CCCC(=O)c2ccc(F)cc2)C1 (stereo not given) | 241 mg/kg
CC(=O)c1ccc(N)cc1 | 381 mg/kg
C=COCCOCC1CO1 (stereo not given) | 2440 mg/kg
O=[N+]([O-])c1cc(Cl)cc(-c2cc(Cl)cc([N+](=O)[O-])c2O)c1O | 10 mg/kg
C#CCc1ccc(COC(=O)C2C(C=C(C)C)C2(C)C)o1 (stereo not given) | 10000 mg/kg
Nc1ccc2nc(C(F)(F)F)[nH]c2c1 | 67 mg/kg
C=CCOCC(CC)(CO)COCC=C | 6500 mg/kg
O=C(Cc1c[nH]c2ccccc12)NN1C(=O)CSC1=S | 432 mg/kg
CC(=O)c1ccccn1 | 2280 mg/kg
O=C(O)C(c1ccc(Cl)cc1)c1ccc(Cl)cc1 | 600 mg/kg and 740 mg/kg
CCC1(CCC(C)C)C(=O)N=C(O)NC1=O (stereo not given) | 275 mg/kg
OC[C@H]1O[C@@H](O[C@@H]2[C@@H](CO)O[C@](O)(CO)[C@H]2O)[C@H](O)[C@@H](O)[C@H]1O | 18200 mg/kg
NC(CO)C(=O)NNCc1ccc(O)c(O)c1O (stereo not given) | 5300 mg/kg
CN1CCN(c2c(F)cc3c(=O)c(C(=O)O)cn4c3c2SCC4)CC1 | 501 mg/kg
O=C1C(CCC2CC2)C(=O)N(c2ccccc2)N1c1ccccc1 | 400 mg/kg
COc1cc(C#N)ccc1OP(=S)(OC)OC | 2710 mg/kg
CC1CSC(c2ccccc2OC(=O)N(C)C)S1 (stereo not given) | 140 mg/kg
CN(CCO)Cc1cc(C(=O)c2cccs2)cc(C(C)(C)C)c1O | 1000 mg/kg
CC(=C(CCO)SSCC1CCCO1)N(C=O)Cc1cnc(C)nc1N (stereo not given) | 2200 mg/kg
COc1ccccc1OCCOC(=O)c1ccccc1OC(C)=O | 2930 mg/kg
COP(=S)(OC)OC1CC(C)CCC1C(C)C (stereo not given) | 750 mg/kg

SMILES | LD50
Nc1ccc(S(=O)(=O)O)c(N)c1 | 3480 mg/kg
c1cc(OCC2CO2)cc(OCC2CO2)c1 (stereo not given) | 2570 mg/kg
CCCCCCCCn1sccc1=O | 550 mg/kg
CCCCN(CCO)CCO | 4250 mg/kg
CCOC(=O)C1CC2CC1C1OC21 (stereo not given) | 4760 mg/kg
NC1CCCc2ccccc2C1 (stereo not given) | 270 mg/kg
CCC(CC)C(=O)OCC(Br)(Br)Br | 4000 mg/kg
Cc1nc(N)nc(N)c1-c1ccc(Br)cc1 | 250 mg/kg
CCSC(=S)N(CC)CC | 712 mg/kg
O=S(=O)(O)CCS | 4440 mg/kg
CC[N+](C)(CC)CCOC(=O)C(O)(c1ccccc1)C1CCCCC1 (stereo not given) | 995 mg/kg
Cc1cc(Cl)ccc1N=CN(C)C | 160 mg/kg
CC(C)c1nnc(NS(=O)(=O)c2ccc(N)cc2)s1 | 3940 mg/kg
CCCC(CCC)C(C)NC(=O)CC (stereo not given) | 700 mg/kg
Cc1ccc2c(c1)c(-c1ccccc1)cn2N(CCN(C)C)CCN(C)C | 980 mg/kg
CCCc1nc(C)cc(OC(=O)N(C)C)n1 | 200 mg/kg
O=CC1CCC=CO1 (stereo not given) | 4920 mg/kg
N#C[C@H](O[C@@H]1O[C@H](CO)[C@@H](O)[C@H](O)[C@H]1O)c1ccccc1 | 560 mg/kg
CCOC(C1=NCC(C)(C)CN1)c1ccccc1 (stereo not given) | 875 mg/kg
C=C(C)c1ccc(C(C)(C)N=C=O)cc1 | 4400 mg/kg
CCSC(C)C1(CC)C(=O)NC(=S)NC1=O (stereo not given) | 772 mg/kg
ClC1=C(Cl)C2(Cl)C3C4C=CC(O4)C3C1(Cl)C2(Cl)Cl (stereo not given) | 68 mg/kg
CCCC[P+](CCCC)(CCCC)Cc1ccc(Cl)s1 | 455 mg/kg
O=C(O)c1cc(Cl)cc([N+](=O)[O-])c1Cl | 2640 mg/kg and 3500 mg/kg

SMILES | LD50
CC(N)C(OCCN(C(C)C)C(C)C)C(=O)c1ccccc1 (stereo not given) | 238 mg/kg
CC(C)(C)[C@@H](O)[C@@H](Cc1ccc(Cl)cc1)n1cncn1 (single isomer, unassigned) | 1300 mg/kg
O=c1[nH]c2ccccc2n1CCCN1CCN(C(c2ccccc2)c2ccccc2)CC1 | 1410 mg/kg
Cc1c(Cl)c(=O)oc2cc(OP(=O)(OCCCCl)OCCCCl)ccc12 | 211 mg/kg
CCOC(C1=NCCCN1)c1cccc2ccccc12 (stereo not given) | 375 mg/kg
C=CC(C)(O)CCCCC (stereo not given) | 1800 mg/kg
Cc1ccc(N)cc1Br | 180 mg/kg
Clc1ccc2c(c1)C(N1CCNCC1)=Nc1ccccc1O2 | 313 mg/kg
CC(C)N=C1SC(=NOC(=O)N(C)SN(C)C(=O)ON=C2SC(=NC(C)C)SC2(C)C)C(C)(C)S1 | 113 mg/kg
C#CCOP(=O)(OCC(C)C)c1ccccc1 (stereo not given) | 600 mg/kg
COc1ccc(C(N)=O)cc1C(=O)NCc1cccnc1 | 1720 mg/kg
CN(C)CCC(c1ccccc1)c1ccccn1 (stereo not given) | 520 mg/kg
CCNc1nc(Cl)nc(N(CC)CC)n1 | 594 mg/kg
Nc1cc(Cl)c(N)cc1Cl | 1750 mg/kg
CCCC(C)CCOC(=O)c1ccccc1C(=O)OCCC(C)CCC (stereo not given) | 35500 mg/kg
O=C1OCCN1/N=C/c1ccc([N+](=O)[O-])o1 | 2340 mg/kg
CC(NNC(=O)c1ccccc1)c1ccccc1 (stereo not given) | 675 mg/kg
CCC(CC)(CO)CO | 850 mg/kg
COc1ccc(N)cc1Cl | 550 mg/kg
CCCOC(=O)CC(SP(=O)(OC)OC)C(=O)OCCC (stereo not given) | 360 mg/kg
Nc1cccc(C(F)(F)F)c1 | 480 mg/kg
NC(=O)C1c2ccccc2CCc2ccccc21 | 2400 mg/kg
CCOP(=O)(OCC)Oc1cc(C)n(CC)c(=O)c1 | 1.62 mg/kg
CN(Cc1cc(Br)cc(Br)c1N)C1CCCCC1 | 6000 mg/kg

SMILES | LD50
NC(=O)OC[C@H](O)[C@@H](O)[C@H](N)C(=O)N[C@@H](C(=O)O)[C@H]1O[C@@H](n2cc(CO)c(=O)[nH]c2=O)[C@H](O)[C@@H]1O | 14700 mg/kg
CCCCCOc1ccc(Br)cc1COCCN1CCOCC1 | 1200 mg/kg
CNC(=O)Oc1ccc(SC)c(C)c1 | 50 mg/kg
O=C1C=CC[C@@H]2[C@H]3CCCN4CCC[C@@H](CN12)[C@@H]34 | 196 mg/kg
CCCCSP(=O)(N(C)C)N(C)C | 208 mg/kg
O=C1NC(=O)C2C3C(C(O)(c4ccccc4)c4ccccn4)=CC(C3=C(c3ccccc3)c3ccccn3)C12 (stereo not given) | 6 mg/kg
Cc1c(Cc2cc(C(C)(C)C)c(O)c(C(C)(C)C)c2)c(C)c(Cc2cc(C(C)(C)C)c(O)c(C(C)(C)C)c2)c(C)c1Cc1cc(C(C)(C)C)c(O)c(C(C)(C)C)c1 | 1500 mg/kg
CC(C)N(Sc1nc2ccccc2s1)C(C)C | 5200 mg/kg
CCc1c(C)nc2c(C)cccn2c1=O | 820 mg/kg
CS(=O)(=O)N(Cc1cccnc1)c1ccc(F)cc1F | 1060 mg/kg
CCOc1ccc([N+](=O)[O-])cc1CNCCCl | 25 mg/kg
NNc1nncc2ccccc12 | 90 mg/kg
CCOC(=O)c1c(C)cc2nc(COC(=O)NC)n(-c3ccccc3Cl)c(=O)c2c1C | 2500 mg/kg
Fc1c(Cl)c(Cl)c2nc(C(F)(F)F)[nH]c2c1Cl | 2.39 mg/kg
O=C(Nc1cccc(Cl)c1)OCC#CCCl | 527 mg/kg
CC1(C)OCC(CO)O1 (stereo not given) | 7000 mg/kg
Cc1ccccc1N=Nc1c(N)ccc2ccccc12 | 120 mg/kg
CCOc1ccccc1C(N)=O | 2200 mg/kg
CC(CN1c2ccccc2Sc2cccnc21)N(C)C (stereo not given) | 1220 mg/kg
CCOP(=S)(OCC)SCc1cccc([N+](=O)[O-])c1 | 250 mg/kg
